Patent US5043354A, “Pharmaceutically useful 5-hydroxy-2,3-dihydro-benzofurans and 5-hydroxy-benzofurans” (Fujisawa Pharmaceutical Co., Ltd., priority 1989, dated 1991)

How the values were obtained:
[1] = biological target: xanthine oxidase-hypoxanthine (XO/HX) reaction; experiment: Inhibitory effect on luminol-induced chemiluminescence (CL) which results from xanthine oxidase-hypoxanthine (XO/HX) reaction; type: biochemical, cow; details: 37° C, peak intensity, sample in dimethylsulfoxide
Procedure: Inhibitory effect on luminol-induced chemiluminescence (CL) which results from xanthine oxidase-hypoxanthine (XO/HX) reaction.
Four hundred and fifty micro liter of […] hypoxanthine (Kohjin Co., Ltd.) in 0.lM phosphate buffer solution (PBS)(pH 7.6), 10 μl of 1 mg/ml luminol (Nakarai Chemicals, Ltd.) in PBS and 10 μl of sample dissolved in dimethylsulfoxide were mixed in a round-bottomed vial, and preincubated for 3 min. at 37° C. And then, 50 μl of 0.05 unit/ml xanthine oxidase in 0.lM phosphate buffer solution (from cow milk, Boehringer Mannhein GmbH) was added. For the measurement of CL, a Biolumat (LB 9505, Berthold, FRG) was used. The vial containing XO/HX reaction mixture was placed into a Biolumat chamber at 37° C, and CL was continuously monitored using a computer (PC 9801 VM, NEC). Peak intensity was used as an index of CL.

rat brain homogenate = experiment: Inhibitory effect on iron-dependent lipid peroxidation of rat brain homogenate (TBA-reactive products); type: biochemical, rat (male Sprague-Dawley); details: 37° C, 20 min
Procedure: Inhibitory effect on iron-dependent lipid peroxidation of rat brain homogenate
Method : (reported by J. M. Braughler et al.^1))
After decapitation,the brain was quickly removed (minus cerebellum), weighed, and placed in ice-cold Krebs buffer solution. The brain was homogenized in a ratio of 1 g of wet tissue to 9 ml of buffer in a teflon homogenizer. Homogenates were used immediately in lipid p-roxidation assays as follows.
* HEPES : N-(2-hydroxyethyl)piperazine-N'-2-ethanesulfonic acid (Sigma)
To the reaction mixture consisted of 50 μl of 6.25 mg/ml brain homogenate in Krebs buffer solution, 110 μl of Krebs buffer solution, 20 μl of sample dissolved in methanol was added 20 μl of aqueous 2 mM Fe(NH4)2 (SO4)2 solution, which was prepared freshly, at 37° C. After 20 min, the reaction was terminated by the addition of 30 μl of 35% perchloric acid. Then 20 μl of 500 μM desferoxamine mesylate (Sigma) in Krebs buffer solution was added to the reaction mixture to prevent further lipid peroxydation. After centrifugation at 2000 xg, 10 min, 4° C., 50 μl of supernatant was subsequently assayed for lipid peroxide.
Lipid peroxide was assessed as TBA-reactive product as described by H. Ohkawa et al ^2). The reaction mixture consisted of 50 μl of above-mentioned supernatant, 100 μl of aqueous 8.1% sodium dodecyl sulfate (SDS) solution, 750 μl of aqueous 20% acetic acid solution which was adjusted with aqueous lN NaOH solution to pH 3.5, 750 μl of aqueous 0.67% 2-thiobarbituric acid solution and 350 μl of distilled water was boiled for 1 hour and cooled in ice bath rapidly. 0.5 ml of distilled water and 2.5 ml of the mixture of n-butanol and pyridine (15:1, V/V) were added, and the mixture was shaken vigorously. After centrifugation at 1250 xg for 10 min, the fluorescence (excitation; 515 nm, emission; […]) of the organic layer was determined.

Solubility = type: physicochemical

IC50 [1] [nM]	Solubility (Solubility; chloroform, diethyl ether, ethyl acetate, acetone, methanol and ethanol)	Solubility (Solubility; hexane, water)	SMILES	Inhibition of TBA-reactive products generation (rat brain homogenate; concentration 10^-4 M) [%]	Inhibition of TBA-reactive products generation (rat brain homogenate; concentration 10^-5 M) [%]	Inhibition of TBA-reactive products generation (rat brain homogenate; concentration 10^-6 M) [%]	Inhibition of TBA-reactive products generation (rat brain homogenate; concentration 10^-7 M) [%]
380			COc1cc2c(cc1O)CC(C(C)(C)O)O2 (racemic) [Example 1, 2,3-dihydro-2-(1-hydroxy-1-methylethyl)-6-methoxy-5-benzofuranol]				
4.7			COc1cc2oc(C(C)C)cc2cc1O [Example 2, 5-hydroxy-6-methoxy-2-(1-methylethyl)benzofuran]				
320	Soluble	Sparingly Soluble	COc1cc2c(cc1O)CC(C(C)(C)O)O2 (stereo not shown) [Example 3, 2,3-Dihydro-2-(1-hydroxy-1-methylethyl)-6-methoxy-5-benzofuranol]	95.5	45.4	20.0	11.4
			Cc1c(C)c2c(c(C)c1O)CCC(C)(CCCC(C)CCCC(C)CCCC(C)C)O2 (stereo not drawn) [α-Tocopherol, reference compound]	65.3	25.7	9.3	0
